In patent US9125913B2, “Bcl-2-selective apoptosis-inducing agents for the treatment of cancer and immune diseases” (AbbVie Inc., priority 2008, dated 2015):

Test system: GST-Bcl-2
Assay: TR-FRET binding assay, Bcl-2
Conditions: TR-FRET Ki values
In short: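 Compounds serially diluted in DMSO from 50 μM (2× starting concentration, 10% DMSO), mixed with GST-tagged protein, F-Bak peptide probe and Tb-labeled antibody, incubated 3 h at room temperature.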

SMILES | Binding selectivity ratio (Bcl-XL Ki/Bcl-2 Ki)
CC1(C)CCC(CN2CCN(c3ccc(C(=O)NS(=O)(=O)c4ccc(NC5CCN(C6CCOCC6)CC5)c([N+](=O)[O-])c4)c(Oc4cccc5[nH]cnc45)c3)CC2)=C(c2ccc(Cl)cc2)C1 [EXAMPLE 417, 2-(1H-benzimidazol-4-yloxy)-4-(4-{[2-(4-chlorophenyl)-4,4-dimethylcyclohex-1-en-1-yl]methyl}piperazin-1-yl)-N-({3-nitro-4-[(1-tetrahydro-2H-pyran-4-ylpiperidin-4-yl)amino]phenyl}sulfonyl)benzamide] | 87.06
CC1(C)CCC(CN2CCN(c3ccc(C(=O)NS(=O)(=O)c4cnc(OCC5CCOCC5)c(-c5nccs5)c4)c(Oc4ccc5[nH]ccc5c4)c3)CC2)=C(c2ccc(Cl)cc2)C1 [EXAMPLE 331, 4-(4-{[2-(4-chlorophenyl)-4,4-dimethylcyclohex-1-en-1-yl]methyl}piperazin-1-yl)-2-(1H-indol-5-yloxy)-N-{[6-(tetrahydro-2H-pyran-4-ylmethoxy)-5-(1,3-thiazol-2-yl)pyridin-3-yl]sulfonyl}benzamide] | >79.8
CN(C)CCCc1cccc(-c2ccc(Cl)cc2)c1CN1CCN(c2ccc(C(=O)NS(=O)(=O)c3ccc(NCC4CCOCC4)c([N+](=O)[O-])c3)c(Oc3cccc4[nH]ccc34)c2)CC1 [EXAMPLE 196, 4-[4-({4′-chloro-3-[3-(dimethylamino)propyl]-1,1′-biphenyl-2-yl}methyl)piperazin-1-yl]-2-(1H-indol-4-yloxy)-N-({3-nitro-4-[(tetrahydro-2H-pyran-4-ylmethyl)amino]phenyl}sulfonyl)benzamide] | >20552.4
CC1(C)CCC(CN2CCN(c3ccc(C(=O)NS(=O)(=O)c4ccc(N5CCOCC5)c([N+](=O)[O-])c4)c(Oc4ccc5[nH]ccc5c4)c3)CC2)=C(c2ccc(Cl)cc2)C1 [EXAMPLE 270, 4-(4-{[2-(4-chlorophenyl)-4,4-dimethylcyclohex-1-en-1-yl]methyl}piperazin-1-yl)-2-(1H-indol-5-yloxy)-N-[(4-morpholin-4-yl-3-nitrophenyl)sulfonyl]benzamide] | >199.1
CC1(C)CCC(CN2CCN(c3ccc(C(=O)NS(=O)(=O)c4ccc(NC5CCCCC5N)c([N+](=O)[O-])c4)c(Oc4ccc5[nH]ccc5c4)c3)CC2)=C(c2ccc(Cl)cc2)C1 (stereo not shown) [EXAMPLE 208, N-({4-[(2-aminocyclohexyl)amino]-3-nitrophenyl}sulfonyl)-4-(4-{[2-(4-chlorophenyl)-4,4-dimethylcyclohex-1-en-1-yl]methyl}piperazin-1-yl)-2-(1H-indol-5-yloxy)benzamide] | >1120.6
O=C(NS(=O)(=O)c1ccc(NCC2CCOCC2)c(S(=O)(=O)C(F)(F)F)c1)c1ccc(N2CCN(Cc3cc(OCCCN4CCCCC4)ccc3-c3ccc(Cl)cc3)CC2)cc1Oc1ccccc1 [Example 118, 4-(4-{[4′-chloro-4-(3-piperidin-1-ylpropoxy)-1,1′-biphenyl-2-yl]methyl}piperazin-1-yl)-2-phenoxy-N-({4-[(tetrahydro-2H-pyran-4-ylmethyl)amino]-3-[(trifluoromethyl)sulfonyl]phenyl}sulfonyl)benzamide] | >858.3
CC1(C)CCC(CN2CCN(c3ccc(C(=O)NS(=O)(=O)c4ccc(S(=O)(=O)N5CCOCC5)cc4)c(Oc4ccc5[nH]ccc5c4)c3)CC2)=C(c2ccc(Cl)cc2)C1 [EXAMPLE 361, 4-(4-{[2-(4-chlorophenyl)-4,4-dimethylcyclohex-1-en-1-yl]methyl}piperazin-1-yl)-2-(1H-indol-5-yloxy)-N-{[4-(morpholin-4-ylsulfonyl)phenyl]sulfonyl}benzamide] | >92.6
COCCOCCNc1ccc(S(=O)(=O)NC(=O)c2ccc(N3CCN(CC4=C(c5ccc(Cl)cc5)CC(C)(C)CC4)CC3)cc2Oc2ccc3[nH]ccc3c2)cc1[N+](=O)[O-] [EXAMPLE 298, 4-(4-{[2-(4-chlorophenyl)-4,4-dimethylcyclohex-1-en-1-yl]methyl}piperazin-1-yl)-2-(1H-indol-5-yloxy)-N-[(4-{[2-(2-methoxyethoxy)ethyl]amino}-3-nitrophenyl)sulfonyl]benzamide] | 1415.7
CC1(C)CCC(CN2CCN(c3ccc(C(=O)NS(=O)(=O)c4ccc(NCCCS(C)(=O)=O)c([N+](=O)[O-])c4)c(Oc4cccc5[nH]ccc45)c3)CC2)=C(c2ccc(Cl)cc2)C1 [EXAMPLE 294, 4-(4-{[2-(4-chlorophenyl)-4,4-dimethylcyclohex-1-en-1-yl]methyl}piperazin-1-yl)-2-(1H-indol-4-yloxy)-N-[(4-{[3-(methylsulfonyl)propyl]amino}-3-nitrophenyl)sulfonyl]benzamide] | 252
COCCOCCSc1ccc(S(=O)(=O)NC(=O)c2ccc(N3CCN(CC4=C(c5ccc(Cl)cc5)CC(C)(C)CC4)CC3)cc2Oc2ccc3[nH]ccc3c2)cc1[N+](=O)[O-] [EXAMPLE 380, 4-(4-{[2-(4-chlorophenyl)-4,4-dimethylcyclohex-1-en-1-yl]methyl}piperazin-1-yl)-2-(1H-indol-5-yloxy)-N-[(4-{[2-(2-methoxyethoxy)ethyl]thio}-3-nitrophenyl)sulfonyl]benzamide] | 2107.3
CN1CCN(CCNc2ccc(S(=O)(=O)NC(=O)c3ccc(N4CCN(CC5=C(c6ccc(Cl)cc6)CC(C)(C)CC5)CC4)cc3Oc3cccc4[nH]ccc34)cc2[N+](=O)[O-])CC1 [Example 101, 4-(4-{[2-(4-chlorophenyl)-4,4-dimethylcyclohex-1-en-1-yl]methyl}piperazin-1-yl)-2-(1H-indol-4-yloxy)-N-[(4-{[2-(4-methylpiperazin-1-yl)ethyl]amino}-3-nitrophenyl)sulfonyl]benzamide] | 121.2
COCCOCCN1CC[C@@H](Nc2ccc(S(=O)(=O)NC(=O)c3ccc(N4CCN(CC5=C(c6ccc(Cl)cc6)CC(C)(C)CC5)CC4)cc3Oc3cccc4[nH]cnc34)cc2[N+](=O)[O-])C1 [EXAMPLE 429, 2-(1H-benzimidazol-4-yloxy)-4-(4-{[2-(4-chlorophenyl)-4,4-dimethylcyclohex-1-en-1-yl]methyl}piperazin-1-yl)-N-{[4-({(3R)-1-[2-(2-methoxyethoxy)ethyl]pyrrolidin-3-yl}amino)-3-nitrophenyl]sulfonyl}benzamide] | 140.65
O=C(NS(=O)(=O)c1ccccc1OCCN1CCCCC1)c1ccc(N2CCN(Cc3ccccc3-c3ccc(Cl)cc3)CC2)cc1Oc1ccccc1 [Example 32, 4-{4-[(4′-chloro-1,1′-biphenyl-2-yl)methyl]piperazin-1-yl}-2-phenoxy-N-{[2-(2-piperidin-1-ylethoxy)phenyl]sulfonyl}benzamide] | >10.8
CN(C)CCCNc1ccc(S(=O)(=O)NC(=O)c2ccc(N3CCN(CC4=C(c5ccc(Cl)cc5)CCC(C)(C)C4)CC3)cc2Oc2ccc3[nH]ccc3c2)cc1[N+](=O)[O-] [Example 51, 4-(4-{[2-(4-chlorophenyl)-5,5-dimethylcyclohex-1-en-1-yl]methyl}piperazin-1-yl)-N-[(4-{[3-(dimethylamino)propyl]amino}-3-nitrophenyl)sulfonyl]-2-(1H-indol-5-yloxy)benzamide] | 62.1
CC1(C)CCC(CN2CCN(c3ccc(C(=O)NS(=O)(=O)c4ccc(NCC5CCOCC5)c([N+](=O)[O-])c4)c(Oc4cccc5c4CCNC5)c3)CC2)=C(c2ccc(Cl)cc2)C1 [EXAMPLE 399, 4-(4-{[2-(4-chlorophenyl)-4,4-dimethylcyclohex-1-en-1-yl]methyl}piperazin-1-yl)-N-({3-nitro-4-[(tetrahydro-2H-pyran-4-ylmethyl)amino]phenyl}sulfonyl)-2-(1,2,3,4-tetrahydroisoquinolin-5-yloxy)benzamide] | >225764.520763495
CN1CCC(Nc2ccc(S(=O)(=O)NC(=O)c3ccc(N4CCN(CC5=C(c6ccc(Cl)cc6)CC(C)(C)CC5)CC4)cc3Oc3cccc4[nH]cnc34)cc2[N+](=O)[O-])CC1 [EXAMPLE 418, 2-(1H-benzimidazol-4-yloxy)-4-(4-{[2-(4-chlorophenyl)-4,4-dimethylcyclohex-1-en-1-yl]methyl}piperazin-1-yl)-N-({4-[(1-methylpiperidin-4-yl)amino]-3-nitrophenyl}sulfonyl)benzamide] | 404.7
CC1(C)CCC(CN2CCN(c3ccc(C(=O)NS(=O)(=O)c4ccc(NCC5CCOCC5)c(C#N)c4)c(Oc4cccc5[nH]ccc45)c3)CC2)=C(c2ccc(Cl)cc2)C1 [EXAMPLE 366, 4-(4-{[2-(4-chlorophenyl)-4,4-dimethylcyclohex-1-en-1-yl]methyl}piperazin-1-yl)-N-({3-cyano-4-[(tetrahydro-2H-pyran-4-ylmethyl)amino]phenyl}sulfonyl)-2-(1H-indol-4-yloxy)benzamide] | >121.0
COC1CCN(c2ccc(S(=O)(=O)NC(=O)c3ccc(N4CCN(CC5=C(c6ccc(Cl)cc6)CC(C)(C)CC5)CC4)cc3Oc3ccc4[nH]ccc4c3)cc2[N+](=O)[O-])CC1 [EXAMPLE 271, 4-(4-{[2-(4-chlorophenyl)-4,4-dimethylcyclohex-1-en-1-yl]methyl}piperazin-1-yl)-2-(1H-indol-5-yloxy)-N-{[4-(4-methoxypiperidin-1-yl)-3-nitrophenyl]sulfonyl}benzamide] | >107.2
COCCOCCNc1ccc(S(=O)(=O)NC(=O)c2ccc(N3CCN(CC4=C(c5ccc(Cl)cc5)CC(C)(C)CC4)CC3)cc2Oc2cccc3[nH]ccc23)cc1[N+](=O)[O-] [EXAMPLE 293, 4-(4-{[2-(4-chlorophenyl)-4,4-dimethylcyclohex-1-en-1-yl]methyl}piperazin-1-yl)-2-(1H-indol-4-yloxy)-N-[(4-{[2-(2-methoxyethoxy)ethyl]amino}-3-nitrophenyl)sulfonyl]benzamide] | 505.1
